Results: US12030936B2, “Modulating the effects of gamma-c-cytokine signaling for the treatment of alopecia and alopecia associated disorders” (BIONIZ THERAPEUTICS, LLC, priority 2019, dated 2024)

What was measured:
IL-3 = assay: PT-18β cell proliferation assay (WST-1), IL-3 as non-γc-cytokine negative control; type: cell-based, murine; settings: PT-18β cells, 1 nM cytokine, BNZ-γ as 1:20 or 1:60 dilution of HEK293T supernatant, 2 days
Description: (§1) For each of the six γc-cytokines, indicator cell lines: NK92, a human NK cell line NK92 available by American Type Culture Collection (ATCC) (catalog #CRL-2407), CTLL-2, a murine CD8 T cells line available from ATCC, and PT-18, a murine mast cell line and its subclone PT-18β, is transfected with human IL-2Rβ gene to make the cells responsive to IL-2 and IL-15 (Tagaya et al., 1996, EMBO J. 15:4928-39), and is used to quantitatively determine the γc-cytokine's growth-promoting activity (See Current protocols in Immunology from Wiley and Sons for a methodological reference).
(§2) Once the appropriate doses of the cytokine that yield the 50% and 95% maximum response from the indicator cell line is determined, various concentrations (ranging from 1 pM to 10 μM) of the purified or synthesized custom derivative peptide is added to each well containing the cytokine and indicator cells. The reduction in light absorbance at 450 nm is used as an indicator of inhibition of cytokine-stimulated cellular proliferation. Typically, the cells are stimulated by the cytokines such that the absorbance of the well containing indicator cell line and the cytokine is between 2.0 and 3.0, which is reduced to a range of 0.1 to 0.5 by the addition of inhibitory peptides. […]
(§3) The growth-responses of the cells were determined 2 days after the introduction of BNZ-γ peptide and the cytokine using the WST-1 assay. […]

IL-9 = assay: PT-18β cell proliferation assay (WST-1), IL-9; type: cell-based, murine; settings: PT-18β cells, 1 nM cytokine, BNZ-γ as 1:20 or 1:60 dilution of HEK293T supernatant, 2 days
Description: as §1, §2, §3

IL-15 = assay: PT-18β cell proliferation assay (WST-1), IL-15; type: cell-based, murine; settings: PT-18β cells, 1 nM cytokine, BNZ-γ as 1:20 or 1:60 dilution of HEK293T supernatant, 2 days
Description: as §1, §2, §3

IL-4 = assay: PT-18β cell proliferation assay (WST-1), IL-4; type: cell-based, murine; settings: PT-18β cells, 1 nM cytokine, BNZ-γ as 1:20 or 1:60 dilution of HEK293T supernatant, 2 days
Description: as §1, §2, §3

STAT5 = assay: IL-15-stimulated tyrosine phosphorylation of STAT5 in PT-18β cells (anti-phospho-STAT5 immunoblot); type: cell-based, murine; settings: PT-18β cells stimulated by IL-15, presence vs absence of BNZ-γ peptide
Description: In addition to stimulating cellular proliferation, binding of the γc-cytokines to their receptors causes a diverse array of intracellular events. (Rochman et al. 2009 Nat. Rev. Immunol. 9:480-90, Pesu et al. 2005 Immunol. Rev. 203:127-142.) Immediately after the cytokine binds to its receptor, a tyrosine kinase called Jak3 (Janus-kinase 3) is recruited to the receptor at the plasma membrane. This kinase phosphorylates the tyrosine residues of multiple proteins including the γc-subunit, STAT5 (Signal Transducer and Activator of Transcription 5) and subunits of the PI3 (Phosphatidylinositol 3) kinase. Among these, the phosphorylation of STAT5 has been implicated in many studies as being linked to the proliferation of cells initiated by the γc-cytokine. (Reviewed in Hennighausen and Robinson, 2008 Genes Dev. 22:711-21.) In accordance with these published data, whether or not the BNZ-γ peptide inhibits the tyrosine phosphorylation of STAT5 molecule in PT-18β cells stimulated by IL-15 was examined (results shown in FIG. 4).
PT-18β cells were stimulated by IL-15 in the presence or absence of BNZ-γ peptide. Cytoplasmic proteins were extracted from the cells according to a conventional method as described in Tagaya et al. 1996 EMBO J. 15:4928-39. […]

humanized NSG mice [1] = assay: Immunohistochemistry of humanized NSG mouse skin tissue for human CD8 T cells; type: in vivo; settings: 7-weeks post-transplant with vs without BNZ-γ treatment
Procedure: In order to characterize the nature of immune attack in the skin tissue and around the hair follicles, immunohistochemistry studies were conducted of the skin tissue of humanized NSG mice 3-weeks (pre-BNZ-γ) and 7-weeks (with or without BNZ-γ treatment) after transplantation of 2 million huPBMCs. The tissue was fixed for 24 hours in 4% formalin (Sigma) and then moved to 70% ethanol for at least 24 hours before being processed. Tissue was then embedded in paraffin following dehydration for two washes of two hours each in 70%, 90%, and 100% ethanol, then cleared in xylene twice for two hours each, and infiltrated with melted paraplast plus at 60 C two times for two hours. Paraffin embedded tissues were stored at room temperature prior to sectioning and staining. An anti-human CD8 antibody (BioCare Medical CRM 311C) or isotype control was used for staining of the tissues based on the standard procedure for IHC.

humanized NSG mice [2] = test system: humanized NSG mice
Procedure: In this experiment, NSG mice were transplanted with 2 million huPBMCs on study day 0, with therapeutic treatment beginning 35-days post-transplant. Mice were treated twice weekly with IV injections of PBS control (n=5), BNZ-γ at 2 mg/kg (n=5), anti-IL-2 antibody at 5 mg/kg (n=3), anti-IL-15 antibody at 5 mg/kg (n=3), or combination anti-IL-2 and anti-IL-15 antibody each at 5 mg/kg (n=3) starting on day 35 for a treatment duration of 4 weeks.
Levels of IL-6 and IFNγ were also measured in this experiment. […] Cytokine levels were determined using sera collected on day 50, except for one animal in the anti-IL-2 antibody treatment group (collected on day 45), one mouse in the PBS control untreated group (collected on day 45), and two mice from the PBS control untreated group (collected on day 40) to ensure a blood sample was collected before each became fatally ill.

[3] = sera collected on day 50 (some earlier), vs PBS control

Substance: I-K-E-F-L-Q-R-F-I-H-I-V-Q-S-I-I-N-T-S (IKEFLQRFIHIVQSIINTS) [BNZ-γ]
- growth-promoting activity of IL-3 (IL-3): not inhibited
- growth-promoting activity of IL-9 (IL-9): significantly (p<0.01 Student's T test) reduced
- growth-promoting activity of IL-15 (IL-15): significantly (p<0.01 Student's T test) reduced
- cellular proliferation stimulated by IL-4 (IL-4): not affected
- tyrosine phosphorylation of STAT5 (STAT5): markedly reduced
- number of infiltrated human CD8 T cells in skin tissue (humanized NSG mice [1]): significant reduction in the number of infiltrated CD8 cells
- survival of the BNZ-γ group relative to combination antibody treatment (humanized NSG mice [2]; BNZ-γ 2 mg/kg IV twice weekly, 4 weeks from day 35, the words are printed of the combination, BNZ-γ being the more effective (p=0.001)): less effective than BNZ-γ
- regrowth of hair (humanized NSG mice [2]; approximately two weeks after treatment was completed (~day 63), 4-week treatment from day 35): greatest degree of hair regrowth of all 4 treatment groups
- level of IFNγ in sera (humanized NSG mice [2]; [3]): most effective
- level of IL-6 in sera (humanized NSG mice [2]; [3]): most effective
